Laboratory results as given in patent US10428151B2, “Treatment of hematologic malignancies with an anti-CXCR4 antibody” (BRISTOL-MYERS SQUIBB COMPANY, priority 2011, dated 2019).

Tests used:
[1] = system: Twist, Snail, Slug, E-Cadherin; settings: Roccaro et al., 2012; cited from earlier work
CCRF-CEM = CCRF-CEM tumor growth inhibition (monotherapy); format: in vivo
[2] = system: human peripheral blood mononuclear cells (PBMCs); test: Flow cytometry binding to human PBMC subsets; settings: 33 μg/ml; CD3+, CD20+, CD11b+, CD14+ subsets; vs isotype-matched control
From the text: Human PBMCs were isolated by standard methods and different cellular subsets were isolated by FACS. In particular, the following cellular subsets were isolated: (i) CD3^+, (ii) CD20^+; (iii) CD11b^+ and (iv) CD14^+.

KG-1 = KG-1 tumor growth inhibition (monotherapy); format: in vivo
Ramos cells [3] = test: Ramos cell proliferation, Cell-Titer-Glo; format: cell-based, human; settings: 40 nM; 72 hours; compared to isotype control
Description: Ramos cells were suspended at 1×10^5 cells/mL in growth media, incubated with the relevant antibodies, including isotype controls, and other test agents and cultured for 72 hours at 37° C. Cell-Titer-Glo (Promega) was added to wells, mixed, and incubated at room temperature for 10 minutes. The plate was read on a GloMax Luminometer (Promega).

[4] = system: DMS79 human small cell lung carcinoma cells; test: DMS79 small cell lung carcinoma xenograft; format: in vivo, mouse; settings: Day 34 post-implantation; 10 mg/kg IP Q3D×5
Description: In a second experiment, 5×10^6 DMS79 human small cell lung carcinoma cells/mouse were implanted into the flank region of each mouse and allowed to grow to a mean size of 160 mm^3, calculated by length×width×height/2 of the tumors, which was day 7 post-implantation. The mice were randomized into different treatment groups and received intraperitoneal (IP) injections of antibody on a dosing schedule of Q3D×5 (every three days for five times). […] Tumor volumes were measured at regular intervals and the mean and median tumor volume determined for each treatment group at each interval.

[5] = system: human umbilical vein endothelial cells (HuVEC); test: HuVEC capillary tube formation; format: cell-based; settings: HuVEC on MATRIGEL, 18 hours
Description: In this example, the ability of the anti-CXCR4 human antibodies to inhibit capillary tube formation by human umbilical vein endothelial cells (HuVEC) was examined […]® was diluted 1:1 with RPMI and plated onto the wells of a 96 well plate and allowed to polymerize for 30 minutes at 37° C. HuVEC (from Cambrex, cat. # CC-2519) at 80% confluence were trypsinized and resuspended at 1×10^6 cells per ml in RPMI with 0.5% FBS. Antibodies were well mixed with HuVEC at a final concentration of 3 mg/ml and allowed to incubate at room temperature for 30 minutes. An irrelevant antibody of the same isotype or media alone was used as a negative control. As a positive control of inhibition of tube formation, a mouse anti-human αvβ3 (CD51/CD61) antibody (R&D Systems, cat. # MAB3050) was used. HuVEC with or without antibodies were plated onto the […]®-coated wells and incubated at 37° C. for 18 hours.
The HuVEC incubated with media alone or with the isotype-matched control antibody formed capillary tubes resulting in the appearance of connected cells across the plate with 3-5 points of connection or branch points per cell. […] The cells appeared isolated and with few or no branch points.

[6] = system: Namalwa Burkitt's lymphoma cells; test: Namalwa subcutaneous xenograft; format: in vivo, mouse
Description: (§1) Additional subcutaneous xenograft tumor models were tested for the ability of anti-CXCR4 antibodies to inhibit tumor growth, in experiments similar to those described above and in Example 9. […] Although the tumor cells in vivo were stainable by the mAb by immunohistochemistry, it is unclear at what stage of their tumor growth CXCR4 began to be expressed.

B16-CXCR4 cells = test: B16-CXCR4 lung metastases, C57 mouse systemic tumor model; format: in vivo; settings: day 14, 5 mg/kg IP
Description: In this example, the ability of the F7 anti-CXCR4 mAb to inhibit lung metastases was examined using a C57 mouse systemic tumor model. More specifically, 0.4×10^6 B16-CXCR4 cells (B16 cells transfected to express human CXCR4) were injected intravenously into each of 30 mice of the C57 strain. The mice were randomized into three groups of ten mice each, which were then treated with either (i) vehicle (PBS); (ii) IgG4 isotype control (5 mg/kg); or (iii) F7 IgG4 (5 mg/kg). The antibody or vehicle was injected intraperitoneally 30 minutes after the B16-CXCR4 cells were injected intravenously. Lungs were harvested on day 14 and the number of lung metastasis nodules was quantitated.

Ramos cells [7] = test: Ramos lymphoma xenograft in SCID mice; format: in vivo
Description: When a mean and median tumor size of 80 mm^3 was reached, the mice were randomized (n=8) according to tumor volume. […] Tumors and body weights were measured twice weekly. Tumor volumes were measured in three dimensions (L×W×H/2) with a Fowler Electronic Digital Caliper (Model 62379-531; Fred V. Fowler Co., Newton, Mass.), and data was electronically recorded using Study Director software from StudyLog Systems, Inc. (South San Francisco, Calif.). Animals were checked daily for postural, grooming, and respiratory changes, as well as lethargy. Mice were euthanized when the tumors reached the 2000 mm^3 endpoint or appeared ulcerated.

MM.1S cells = test: MM.1S MM xenograft in SCID mice; format: in vivo
primary MM cells = settings: Roccaro et al., 2012; cited from earlier work
[8] = system: HPAC human pancreatic adenocarcinoma cells; test: HPAC subcutaneous xenograft; format: in vivo, mouse
Description: as §1

Nomo-1 = Nomo-1 AML xenograft; format: in vivo, SCID mice
From the text: In the Nomo-1 model (7.5 million cells implanted subcutaneously as in Example 14).

[9] = system: NIH-H226 lung carcinoma cells; test: NIH-H226 subcutaneous xenograft; format: in vivo, mouse
Description: as §1

MM cells = settings: Roccaro et al., 2012; cited from earlier work

## BMS-936564: fully human anti-CXCR4 monoclonal antibody; VH SEQ ID NO: 25, VL SEQ ID NO: 29
[1]
  effect on EMT-related proteins: inhibits the EMT-related proteins Twist, Snail and Slug, and up-regulates E-Cadherin
CCRF-CEM
  % Tumor Growth Inhibition (Monotherapy): 72%
[2]
  binding to PBMC subsets: capable of binding effectively to each of the four subsets
KG-1
  % Tumor Growth Inhibition (Monotherapy): 23%
Ramos cells [3]
  maximum inhibition of Ramos cell proliferation: about 50%
[4]
  Mean tumor volume: 620 mm^3
  Median tumor volume: 599 mm^3
  TGI (%) (mean): 38%
[5]
  inhibition of capillary tube formation: most effective in inhibiting capillary tube formation
[6]
  % Tumor Growth Inhibition (Monotherapy): 66%
[6]; 3 mg/kg
  tumor growth inhibition: approximately 70%
B16-CXCR4 cells
  Number of Lung Metastases Mean: 157
  Number of Lung Metastases Median: 186
B16-CXCR4 cells; listed as F7 Anti-CXCR4 IgG4, 5 mg/kg
  % Inhibition of Lung Mets (Mean): 56%
B16-CXCR4 cells; listed as F7 mAb, 5 mg/kg
  % Inhibition of Lung Mets (Mean): 56%
Ramos cells [7]; 15 mg/kg/dose IP Days 0 and 7
  time the inhibition was maintained: 60 days
Ramos cells [7]; Day 21, 15 mg/kg/dose IP Days 0 and 7
  median growth inhibition: 99%
Ramos cells [7]; Ramos
  % Tumor Growth Inhibition (Monotherapy): 80%
MM.1S cells; Day 25, compared to isotype control, MDX-1338 10 mg/kg/dose, lenalidomide 100 mg/kg
  mean tumor growth inhibition: 60%
MM.1S cells; MM.1S
  % Tumor Growth Inhibition (Monotherapy): 49%
  tumor growth inhibition: MDX-1338 = 60%
Primary MM cells
  adhesion of primary MM cells to BMSCs: inhibited by BMS936564 in a dose-dependent manner
[8]
  tumor growth inhibition: no tumor growth inhibition
Nomo-1; Nomo-1
  % Tumor Growth Inhibition (Monotherapy): 88%
Nomo-1; day 34, 10 mg/kg/dose, compared to isotype or vehicle control
  median tumor growth inhibition: 88%
[9]
  tumor growth inhibition: no tumor growth inhibition
MM cells
  migration of MM cells toward CXCL12 and primary MM BMSCs: inhibited migration
